Results published in ChEMBL document CHEMBL2380196, “New anticancer active and selective phenylene-bisbenzothiazoles: synthesis, antiproliferative evaluation and DNA binding” (Eur J Med Chem, 2013).
The source made the active and inactive calls. The calls are words filed in the database; no cut-off is given here.

Experiments:
HeLa [1] = assay: Cell cycle arrest in human HeLa cells assessed as accumulation in G2/M phase at 5 uM after 48 hrs using propidium iodide staining by flow cytometry relative to control; type: functional
HeLa [2] = assay: Cell cycle arrest in human HeLa cells assessed as accumulation in sub-G1 phase at 5 uM after 48 hrs using propidium iodide staining by flow cytometry relative to control; type: functional
SK-BR-3 [3] = assay: Cell cycle arrest in human SKBR3 cells assessed as accumulation in S phase at 10 uM after 24 hrs using propidium iodide staining by flow cytometry relative to control; type: functional
MIA PaCa-2 [4] = assay: Cell cycle arrest in human MIAPaCa2 cells assessed as accumulation in G2/M phase at 5 uM after 48 hrs using propidium iodide staining by flow cytometry relative to control; type: functional
HeLa [5] = assay: Cell cycle arrest in human HeLa cells assessed as accumulation in S phase at 5 uM after 48 hrs using propidium iodide staining by flow cytometry relative to control; type: functional
SW-620 = assay: Antiproliferative activity against human SW620 cells after 72 hrs by MTT assay; type: functional, cell-based; settings: SW-620, 72 h; for CC50: read-out: LC50 (the source's name)
SK-BR-3 [6] = assay: Cell cycle arrest in human SKBR3 cells assessed as accumulation in G1 phase at 5 uM after 48 hrs using propidium iodide staining by flow cytometry relative to control; type: functional
HeLa [7] = assay: Cell cycle arrest in human HeLa cells assessed as accumulation in S phase at 5 uM after 24 hrs using propidium iodide staining by flow cytometry relative to control; type: functional
HeLa [8] = assay: Cell cycle arrest in human HeLa cells assessed as accumulation in G1 phase at 5 uM after 24 hrs using propidium iodide staining by flow cytometry relative to control; type: functional
MIA PaCa-2 [9] = assay: Cell cycle arrest in human MIAPaCa2 cells assessed as accumulation in S phase at 5 uM after 48 hrs using propidium iodide staining by flow cytometry relative to control; type: functional
SK-BR-3 [10] = assay: Cell cycle arrest in human SKBR3 cells assessed as accumulation in S phase at 10 uM after 48 hrs using propidium iodide staining by flow cytometry relative to control; type: functional
MIA PaCa-2 [11] = assay: Cell cycle arrest in human MIAPaCa2 cells assessed as accumulation in sub-G1 phase at 10 uM after 24 hrs using propidium iodide staining by flow cytometry relative to control; type: functional
SK-BR-3 [12] = assay: Cell cycle arrest in human SKBR3 cells assessed as accumulation in G2/M phase at 10 uM after 48 hrs using propidium iodide staining by flow cytometry relative to control; type: functional
SK-BR-3 [13] = assay: Induction of apoptosis in human SKBR3 cells at 10 uM after 48 hrs using propidium iodide/Annexin-V staining by flow cytometry relative to control; type: functional
MIA PaCa-2 [14] = assay: Cell cycle arrest in human MIAPaCa2 cells assessed as accumulation in G1 phase at 5 uM after 24 hrs using propidium iodide staining by flow cytometry relative to control; type: functional
MIA PaCa-2 [15] = assay: Cell cycle arrest in human MIAPaCa2 cells assessed as accumulation in G1 phase at 5 uM after 48 hrs using propidium iodide staining by flow cytometry relative to control; type: functional
HeLa [16] = assay: Cell cycle arrest in human HeLa cells assessed as accumulation in sub-G1 phase at 10 uM after 48 hrs using propidium iodide staining by flow cytometry relative to control; type: functional
SK-BR-3 [17] = assay: Cell cycle arrest in human SKBR3 cells assessed as accumulation in sub-G1 phase at 5 uM after 48 hrs using propidium iodide staining by flow cytometry relative to control; type: functional
HeLa [18] = assay: Cell cycle arrest in human HeLa cells assessed as accumulation in G1 phase at 10 uM after 24 hrs using propidium iodide staining by flow cytometry relative to control; type: functional
MIA PaCa-2 [19] = assay: Cell cycle arrest in human MIAPaCa2 cells assessed as accumulation in S phase at 10 uM after 48 hrs using propidium iodide staining by flow cytometry relative to control; type: functional
HeLa [20] = assay: Antiproliferative activity against human HeLa cells after 72 hrs by MTT assay; type: functional, cell-based; settings: for CC50: read-out: LC50 (the source's name)
MIA PaCa-2 [21] = assay: Cell cycle arrest in human MIAPaCa2 cells assessed as accumulation in G1 phase at 10 uM after 48 hrs using propidium iodide staining by flow cytometry relative to control; type: functional
MIA PaCa-2 [22] = assay: Antiproliferative activity against human MIAPaCa2 cells after 72 hrs by MTT assay; type: functional, cell-based; settings: MIA PaCa-2, 72 h; for CC50: read-out: LC50 (the source's name)
MIA PaCa-2 [23] = assay: Cell cycle arrest in human MIAPaCa2 cells assessed as accumulation in G2/M phase at 10 uM after 48 hrs using propidium iodide staining by flow cytometry relative to control; type: functional
MIA PaCa-2 [24] = assay: Cell cycle arrest in human MIAPaCa2 cells assessed as accumulation in sub-G1 phase at 5 uM after 48 hrs using propidium iodide staining by flow cytometry relative to control; type: functional
[25] = (§1) Antiproliferative activity against human WI38 cells after 72 hrs by MTT assay; type: cell-based, WI-38; settings: human, WI-38 cells; read-out: LC50
WI-38 = assay: as §1; type: cell-based; settings: Homo sapiens, WI-38, 72 h
MIA PaCa-2 [26] = assay: Cell cycle arrest in human MIAPaCa2 cells assessed as accumulation in G2/M phase at 10 uM after 24 hrs using propidium iodide staining by flow cytometry relative to control; type: functional
SK-BR-3 [27] = assay: Induction of apoptosis in human SKBR3 cells at 10 uM after 24 hrs using propidium iodide/Annexin-V staining by flow cytometry relative to control; type: functional
HeLa [28] = assay: Cell cycle arrest in human HeLa cells assessed as accumulation in G1 phase at 10 uM after 48 hrs using propidium iodide staining by flow cytometry relative to control; type: functional
DNA = assay: Binding affinity to calf thymus DNA at 50 uM by Circular dichroism spectra analysis; type: nucleic-acid assay; settings: Bos taurus
MIA PaCa-2 [29] = assay: Cell cycle arrest in human MIAPaCa2 cells assessed as accumulation in S phase at 10 uM after 24 hrs using propidium iodide staining by flow cytometry relative to control; type: functional
SK-BR-3 [30] = assay: Cell cycle arrest in human SKBR3 cells assessed as accumulation in sub-G1 phase at 10 uM after 48 hrs using propidium iodide staining by flow cytometry relative to control; type: functional
MIA PaCa-2 [31] = assay: Cell cycle arrest in human MIAPaCa2 cells assessed as accumulation in G1 phase at 10 uM after 24 hrs using propidium iodide staining by flow cytometry relative to control; type: functional
HeLa [32] = assay: Cell cycle arrest in human HeLa cells assessed as accumulation in sub-G1 phase at 5 uM after 24 hrs using propidium iodide staining by flow cytometry relative to control; type: functional
HeLa [33] = assay: Cell cycle arrest in human HeLa cells assessed as accumulation in G2/M phase at 10 uM after 24 hrs using propidium iodide staining by flow cytometry relative to control; type: functional
SK-BR-3 [34] = assay: Cell cycle arrest in human SKBR3 cells assessed as accumulation in G1 phase at 5 uM after 24 hrs using propidium iodide staining by flow cytometry relative to control; type: functional
SK-BR-3 [35] = assay: Cell cycle arrest in human SKBR3 cells assessed as accumulation in G2/M phase at 5 uM after 24 hrs using propidium iodide staining by flow cytometry relative to control; type: functional
HeLa [36] = assay: Cell cycle arrest in human HeLa cells assessed as accumulation in G1 phase at 5 uM after 48 hrs using propidium iodide staining by flow cytometry relative to control; type: functional
SK-BR-3 [37] = assay: Cell cycle arrest in human SKBR3 cells assessed as accumulation in G2/M phase at 5 uM after 48 hrs using propidium iodide staining by flow cytometry relative to control; type: functional

## Cl.Cl.c1cc2nc(-c3ccc(-c4nc5ccc(C6=NCCN6)cc5s4)cc3)sc2cc1C1=NCCN1
HeLa [1]
  Activity: 18.9%
HeLa [2]
  Activity: 22.7%
SK-BR-3 [3]
  Activity: 39.1%
MIA PaCa-2 [4]
  Activity: 18.4%
HeLa [5]
  Activity: 49.6%
SW-620
  IC50: 7.65 µM
  CC50: > 100 µM
SK-BR-3 [6]
  Activity: 53.6%
HeLa [7]
  Activity: 44.5%
HeLa [8]
  Activity: 42%
MIA PaCa-2 [9]
  Activity: 35.8%
SK-BR-3 [10]
  Activity: 42.3%
MIA PaCa-2 [11]
  Activity: 33.1%
SK-BR-3 [12]
  Activity: 20.3%
SK-BR-3 [13]
  Activity: 15%
MIA PaCa-2 [14]
  Activity: 35.2%
MIA PaCa-2 [15]
  Activity: 45.9%
HeLa [16]
  Activity: 23.2%
SK-BR-3 [17]
  Activity: 27.5%
HeLa [18]
  Activity: 34.2%
MIA PaCa-2 [19]
  Activity: 40.9%
HeLa [20]
  IC50: 7.75 µM
  CC50: 71.1 µM
MIA PaCa-2 [21]
  Activity: 40.6%
MIA PaCa-2 [22]
  IC50: 3.54 µM
  CC50: 36.7 µM
MIA PaCa-2 [23]
  Activity: 18.4%
MIA PaCa-2 [24]
  Activity: 35.7%
[25]
  CC50 at 72 h: > 100 µM
WI-38
  IC50: > 100 µM
MIA PaCa-2 [26]
  Activity: 19%
SK-BR-3 [27]
  Activity: 5%
HeLa [28]
  Activity: 42.3%
DNA
  Activity: inactive
MIA PaCa-2 [29]
  Activity: 40.1%
SK-BR-3 [30]
  Activity: 32.1%
MIA PaCa-2 [31]
  Activity: 40.9%
HeLa [32]
  Activity: 9.9%
HeLa [33]
  Activity: 7.2%
SK-BR-3 [34]
  Activity: 58.9%
SK-BR-3 [35]
  Activity: 11.6%
HeLa [36]
  Activity: 31.9%
SK-BR-3 [37]
  Activity: 13.8%

## Cl.Cl.c1cc(-c2nc3ccc(C4=NCCN4)cc3s2)cc(-c2nc3ccc(C4=NCCN4)cc3s2)c1
HeLa [1]
  Activity: 17.2%
HeLa [2]
  Activity: 13.3%
SK-BR-3 [3]
  Activity: 62.1%
MIA PaCa-2 [4]
  Activity: 17.1%
HeLa [5]
  Activity: 39.3%
SW-620
  IC50: 0.47 µM
  CC50: 6.19 µM
SK-BR-3 [6]
  Activity: 36.2%
HeLa [7]
  Activity: 38.4%
HeLa [8]
  Activity: 39.3%
MIA PaCa-2 [9]
  Activity: 30.8%
SK-BR-3 [10]
  Activity: 67.8%
MIA PaCa-2 [11]
  Activity: 8.1%
SK-BR-3 [12]
  Activity: 11.1%
SK-BR-3 [13]
  Activity: 75%
MIA PaCa-2 [14]
  Activity: 60.2%
MIA PaCa-2 [15]
  Activity: 52.1%
HeLa [16]
  Activity: 15.5%
SK-BR-3 [17]
  Activity: 21.6%
HeLa [18]
  Activity: 31.7%
MIA PaCa-2 [19]
  Activity: 50.8%
HeLa [20]
  IC50: 2.06 µM
  CC50: 7.38 µM
MIA PaCa-2 [21]
  Activity: 42.8%
MIA PaCa-2 [22]
  IC50: 0.26 µM
  CC50: 1.49 µM
MIA PaCa-2 [23]
  Activity: 8.6%
MIA PaCa-2 [24]
  Activity: 20.4%
[25]
  CC50 at 72 h: 6.63 µM
WI-38
  IC50: 0.15 µM
MIA PaCa-2 [26]
  Activity: 21.3%
SK-BR-3 [27]
  Activity: 8%
HeLa [28]
  Activity: 20.4%
DNA
  Activity: Active
MIA PaCa-2 [29]
  Activity: 49.1%
SK-BR-3 [30]
  Activity: 12.5%
MIA PaCa-2 [31]
  Activity: 41.6%
HeLa [32]
  Activity: 14.4%
HeLa [33]
  Activity: 2.1%
SK-BR-3 [34]
  Activity: 34.5%
SK-BR-3 [35]
  Activity: 4.2%
HeLa [36]
  Activity: 47.5%
SK-BR-3 [37]
  Activity: 21.1%
